# Assay: in vitro
# Settings: human, hela cells, % viability
Compound,"viability at 28.5 h, 10 µM [%]","viability at 28.5 h, 10 µM (bulk resorufin, single well) [%]"
Fc1ccc(CN2CCC3(C2)c2[nH]c4ccccc4c2CCN3Cc2ccc(F)cc2)cc1 (stereo not shown) [CBK059467],85.8,
COc1c(C)[nH]cc(CN(C)CCC(=O)Nc2cccc(F)c2)c1=O [CBK304201],90.5,
Cc1ccc(CN2CCCC(n3c(=O)oc4ccccc43)C2)o1 (stereo not shown) [CBK284871],95.6,
COc1ccc(CNC(=O)C2CCCN(S(C)(=O)=O)C2)cc1OC (stereo not shown) [CBK299830],90.2,
CC(=O)Nc1cccc(-c2cn3ccnc3c(N3CCN(C)CC3)n2)c1 [CBK037930],95.2,
CC(C)c1nccn1CCCNC(=O)N1CCCC(c2ccncn2)C1 (stereo not shown) [CBK307448],88.7,
O=C(Nc1cccc(F)c1C(=O)Nc1ccc(F)cc1F)c1cccs1 [CBK066849],87.3,
O=C(Cc1ccc2c(c1)CCCO2)Nc1c(OCCn2cccn2)ccc2ccccc12 [CBK285679],96.9,
O=C(NC(Cc1ccsc1)c1nccs1)C1CC2C=CC1O2 (stereo not shown) [CBK285096],91.9,
O=C1NC2(CCN(C(=O)C(F)(F)F)CC2)Oc2ccccc21 [CBK283906],94,
O=C(Cc1c[nH]c2ccccc12)N1CCC2(CCCN(C(=O)c3cccc(C(F)(F)F)c3)C2)C1 (stereo not shown) [CBK131578],97.2,
Cc1ccc(S(=O)(=O)NCCCN2CCOCC2)cc1C [CBK262934],96.6,
Cc1cc(C)n(Cc2cc(C(=O)NCC(C)Oc3cccnc3)n[nH]2)n1 (stereo not shown) [CBK307609],85.9,
Oc1c(-c2cccc(C(F)(F)F)c2)cnc2cccnc12 [CBK081290],87.1,
Cn1nc(C(F)(F)F)cc1C1CCCCCN1S(C)(=O)=O (stereo not shown) [CBK284673],101,
O=C(CN(Cc1ccccc1)S(=O)(=O)c1ccc2c(c1)OCCO2)Nc1ccc2c(c1)OCCO2 [CBK262499],98.5,
COc1ccc(OC(=O)c2csc(Cc3c(Cl)cccc3Cl)n2)cc1 [CBK083573],95.7,
FC(F)(F)c1cccc(CSc2nc3ccccc3nc2N2CCCC2)c1 [CBK107190],91.5,
Nc1nonc1-n1nnc(C(=O)N/N=C/c2nc3ccccc3[nH]2)c1-c1ccccc1 [CBK262815],93.8,
O=C(Cn1cnc2ccc([N+](=O)[O-])cc2c1=O)Nc1ccc(C(=O)O)cc1 [CBK297542],85.5,
Cc1nc(C2CCCN(C(=O)CCc3ccno3)C2)c2sccn12 (stereo not shown) [CBK285237],87.5,
COc1ccc(-c2ccc3c(c2)COC2(CCNCC2)O3)cn1 [CBK060913],,81

Compound,"viability at 28.5 h, 10 µM [%]","viability at 28.5 h, 10 µM (bulk resorufin, single well) [%]"
COc1cc(NS(=O)(=O)c2ccccc2)c(Cl)cc1C(=O)O [CBK286564],98,
CN(CCN1CCCCC1)C(=O)Cn1cnc2ccccc21 [CBK281515],90.6,
O=C(O)C1CCN(c2ncnc3sc4c(c23)CCC4)CC1 [CBK268326],98.9,
CC[C@H]1CN(C(=O)c2cccnc2)CC[C@H]1CC(=O)N1CCC(C(N)=O)CC1 [CBK288772],104,
O=C(Cn1ccc2ccnc(-c3cccs3)c21)N1CCC(O)CC1 [CBK284736],93.1,
O=C(O)CC1(CC(=O)Nc2ccc(N3CCCC3=O)c(Cl)c2)CCCCC1 [CBK296664],96.3,
O=S(=O)(c1ccccc1)n1ccc2c(Br)cccc21 [CBK002084],113,
O=C(NCc1cccs1)c1ccccc1Nc1cccc(C(F)(F)F)c1 [CBK149557],104,
CCCCN(C(=O)CC1SC(NC2CCCCCC2)=NC1=O)c1ccccc1 (stereo not shown) [CBK067392],92.4,
Cc1ccc(C(=O)N2CCC(O)(c3cccnc3F)CC2)o1 [CBK284358],94.4,
Cc1nnc(N2CCn3nc(C(O)Cc4ccccc4)cc3C2)s1 (stereo not shown) [CBK307152],86,
COc1cccc(NC(=O)NCc2ccc(F)cc2)c1 [CBK115590],90.2,
CCOc1ccc(CN2CCN(C(=O)c3cccc(C#N)c3)CC2)cc1 [CBK304527],93.5,
Cc1cccc(C)c1NC(=O)CN(Cc1ccccc1)Cc1cc2ccc(C)c(C)c2[nH]c1=O [CBK122696T],94.4,
CC(C)(C)C(=O)NC(=S)NNC(=O)c1ccncc1 [CBK269304],90.6,
O=C(c1ccccc1-c1ccccc1)N1CCn2cnnc2C1 [CBK283789],85.2,
O=C(CCCc1nc(-c2ccc(Cl)cc2)no1)NCc1cccnc1 [CBK269415],90.4,
COc1ccccc1-c1nnc(SCc2ccc(C(=O)O)cc2)[nH]1 [CBK266631],99.5,
CCN(CC)CCNC(=O)C1CCCCN1S(=O)(=O)c1ccc(C)cc1 (stereo not shown) [CBK101088],89.9,
O=S(=O)(Nc1nnn[nH]1)c1cccc(C(F)(F)F)c1 [CBK062377],108,
CNS(=O)(=O)c1cccc2c1CCN(C(=O)NC1CCOC1)C2 (stereo not shown) [CBK306172],106,
CCOc1cc(/C=C/c2nc(O)c([N+](=O)[O-])c(=O)[nH]2)ccc1OCC(N)=O [CBK267337],96,

Compound,"viability at 28.5 h, 10 µM [%]","viability at 28.5 h, 10 µM (bulk resorufin, single well) [%]"
N#Cc1ccnc(SCC(=O)Nc2ccc(CN3CCOCC3)cc2)c1 [CBK306010],103,
COc1cncc(-c2cc(NC3CCCCC3)ncn2)c1 [CBK090903],96.5,
Cc1ccc(C(=O)N2CCC(Cc3ccccc3)CC2)cn1 [CBK200179],94.7,
COC(=O)c1cn(-c2ccc(Cl)cc2)c(=O)c2ccccc12 [CBK116489],101,
CNCC1CCCN1S(=O)(=O)c1ccc(OCc2ncnn2C)cc1 (stereo not shown) [CBK304500],90,
CCC(C)NC1=NC(=O)C(CC(=O)N(C)c2ccccc2)S1 (stereo not shown) [CBK059110T],83.3,
Cc1c(C(=O)N(C)Cc2nc(C(F)(F)F)cs2)nnn1C1CCNCC1 [CBK304315C],106,
CN1CCN(C(c2cccs2)c2nnnn2C(C)(C)C)CC1 (stereo not shown) [CBK141702],91.9,
COc1ccc(CCC(=O)Nc2cc(N3CCNCC3)ncn2)cc1 [CBK004231T],92.1,
O=C(O)c1ccccc1C(=O)Nc1ccc(Oc2cccc3ccccc23)cc1 [CBK265131],84.9,
CS(=O)(=O)Nc1nccnc1OC1CCN(CCc2ccccc2)CC1 [CBK084279],98.3,
CCOC(=O)C1CSCCN1C(=O)c1cnn(-c2ccc(Br)cc2)c1C (stereo not shown) [CBK304550],102,
CCn1cc(CN2CCCN(C(=O)c3cn4ccccc4n3)CC2)cn1 [CBK304784],98.3,
O=C(c1sccc1Br)N1CCN(Cc2ccc3c(c2)OCO3)CC1 [CBK074730],100,
COc1ccc(-c2ccccc2)cc1CN(Cc1ccc2c(c1)OCO2)CC(C)O (stereo not shown) [CBK286471],89.7,
O=C(NC(Nc1ncccn1)C(Cl)(Cl)Cl)c1ccccc1 (stereo not shown) [CBK261408],107,
O=C(Nc1nccs1)c1nccnc1-c1ccc(COc2ccccc2)cc1 [CBK050839],95.6,
O=C(CSCC(=O)c1ccc(F)cc1)Nc1ccc2ccccc2c1 [CBK263264],88.1,
c1ccc(COc2ccc3[nH]c4c(c3c2)CCNC42CCCN(CC3CC3)C2)cc1 (stereo not shown) [CBK040619],100,
N#CC(C(=O)NC1CCCCC1)C(=O)c1nn(-c2ccccc2)c2c1CSc1ccccc1-2 (stereo not shown) [CBK017690],103,

# — paper PMC12040169 (PLOS Biology, 2025)
